Experiments:
[1] = test system: atrogin-1; experiment: Northern blot of atrogin-1 mRNA in C2C12 myotubes; assay type: cell-based, mouse
Experimental: (§1) C2C12 mouse myoblasts (ATCC) were cultured in DMEM 10% FCS (ATCC) until the cells reached confluence. At that time, the medium was replaced with DMEM 2% horse serum (HS) (ATCC) (“differentiation medium”) and incubated for 4 days to induce myotube formation before proceeding with experiments. Pharmacological agents were variously used at the following final concentrations: dexamethasone (1 μM; Sigma), IGF-1 (10 ng/ml; Sigma), LiCl (10 mM; Sigma), LY294002 (10 μM, from 10 mM stock in DMSO, Calbiochem). For infection, myotubes were incubated with adenovirus at a multiplicity of infection (MOI) of 250 in differentiation medium for 18 h, and then medium was replaced. Under these conditions, infection efficiency was greater than 90%. Typical experiments for RNA and protein analysis were performed in 6-well plates. Myotube diameter was quantified as follows: five different fields at 100× magnification were chosen randomly and myotubes were measured using IMAGE software (Scion, Frederick, Md.) as previously performed (Rommel et al., 2001). All data are expressed as the mean of five measurements taken along the length of the myotube±SEM. Comparisons were made using the student's t test, with p<0.05 being considered statistically significant.
After incubation, myotubes were washed in PBS and total RNA was extracted using TRizo1 reagent (Invitrogen) according to the manufacturer's specifications. Northern blotting was performed as described elsewhere (Gomes et al., 2001). Briefly, total RNA was separated on formaldehyde-agarose gels, transferred to Zeta-Probe membrane (Bio-Rad) and UV-crosslinked. Membranes were hybridized with a full length mouse atrogin-1 probe, at 65 ° C., in Church buffer (Church and Gilbert, 1984), and analyzed by using a Fuji Phosphorimager. Blots were stripped and reprobed with a mouse GADPH probe (Ambion) to ensure equal-loading and gel transfer. The relative amounts of the bands were quantified by densitometry.

[2] = test system: Foxo1, 3 and Foxo4; experiment: Immunoblot of phosphorylated Foxo factors in C2C12 myotubes; assay type: cell-based, mouse
Experimental: (§2) Anti-phospho-AKT (Ser473), anti-phospho-mTOR (Ser2448), anti-phospho-p70S6K (Thr389), anti-phospho-Foxo1 (Ser 256), anti-phospho-Foxo4 (Ser 193), anti-AKT, anti-p70S6K and anti-Foxo1 were purchased from Cell Signaling. Anti-phospho-Foxo3 (Thr32) and the FKHR (Foxo1)-GST fusion protein were from Upstate. All primary antibodies were rabbit potyclonal antibodies. HRP-conjugated goat anti-rabbit antibody was from Promega.
C2C12 mouse myoblasts (ATCC) were cultured in DMEM 10% FCS (ATCC) until the cells reached confluence. At that time, the medium was replaced with DMEM 2% horse serum (HS) (ATCC) (“differentiation medium”) and incubated for 4 days to induce myotube formation before proceeding with experiments. […] Myotube diameter was quantified as follows: five different fields at 100× magnification were chosen randomly and myotubes were measured using IMAGE software (Scion, Frederick, Md.) as previously performed (Rommel et al., 2001). All data are expressed as the mean of five measurements taken along the length of the myotube±SEM. […]
(§3) Myotube protein was also extracted with TRizo1 reagent according to the manufacturer's instructions. Protein concentration was determined by BCA assay (Pierce). […] The relative amounts of the bands were quantified by densitometry using ImageJ software.

[3] = test system: S6K; experiment: Immunoblot of phosphorylated S6K in C2C12 myotubes; assay type: cell-based, mouse
Experimental: as §2, §1
as §3, with “(Pierce). SDS-PAGE was performed on 4-12% gradient gels (Novex, Invitrogen) loading 20 μg protein/lane.” for “(Pierce).”

[4] = target: Constitutively active FOXO3A constitutively active (AKT phosphorylation sites, residues not stated) (Homo sapiens) (UniProt O43524); experiment: cell_activity; settings: luciferase in adult mouse muscle
[5] = target: Wild-type FOXO3A (Homo sapiens) (UniProt O43524); experiment: cell_activity; settings: luciferase in adult mouse muscle
[6] = target: T1, FoxoGST (Homo sapiens, UniProt Q12778); experiment: Electrophoretic mobility shift assay with purified FoxoGST; assay type: binding; settings: for competition of FoxoGST-IGFBP1 complex formation by unlabeled oligonucleotide: 100-fold molar excess of cold competitor; for binding of FoxoGST to 32P-labeled oligonucleotide: gel shift; for competition of FoxoGST-AT Foxo 1 complex formation: increasing amounts of unlabeled oligonucleotide
T1 construct: purchased Upstate
Text: Double stranded oligonucleotides were labeled by T4 Polynucleotide kinase and […] (Promega). The following pairs of oligonucleotides were used (Forkhead sites are underlined): IGFBP1: 5′-[…]-3′ (SEQ ID NO:9) and 5′-[…] (SEQ ID NO:10); SP 1:5′-[…]-3′ (SEQ ID NO:11) and 5′[…]-3′ (SEQ ID NO:12); ATFoxo 1: 5′-GGGATAAATACT-GTGCTCGGGCAG-3′ (SEQ ID NO:13) and 5′-[…]-3′ (SEQ ID NO:14). ATFoxo 1mut: 5′-[…]-3′ (SEQ ID NO:15) and 5′ […]-3′ (SEQ ID NO:16). Reactions using the Gel Shift Assay System (Promega) contained the cold competitor (100-fold molar excess over labeled oligonucleotide) and 1 μl of purified FoxoGST (Upstate), and were incubated at room temperature for 10 min. The samples were then mixed with ^32P-labeled oligonucleotides for 20 min and loaded on Novex 6% DNA retardation gels (Invitrogen). After electrophoresis the gels were dried and analyzed using a Fuji Phosphorimager system.

[7] = test system: atrogin-1; settings: reported from Sacheck et al. (manuscript submitted) or Li et al. 2003a; cited from earlier work
[8] = test system: C2C12 myotubes; experiment: Myotube diameter in C2C12 myotube cultures; assay type: cell-based, mouse; settings: dexamethasone (1 μM) for 24 hrs
Experimental: as §1

[9] = test system: AKT; experiment: Immunoblot of phospho-AKT to total AKT in C2C12 myotubes; assay type: cell-based, mouse; settings: dexamethasone treatment for 24 hrs, densitometric analysis
Experimental: Myotube protein was also extracted with TRizo1 reagent according to the manufacturer's instructions. Protein concentration was determined by BCA assay (Pierce). SDS-PAGE was performed on 4-12% gradient gels (Novex, Invitrogen) loading 20 μg protein/lane. Westerns were performed as previously (Gomes et al., 2001) and were visualized with ECL detection reagents (Amersham). […] The relative amounts of the bands were quantified by densitometry using ImageJ software.

T1 sequence (Q12778 whole entry): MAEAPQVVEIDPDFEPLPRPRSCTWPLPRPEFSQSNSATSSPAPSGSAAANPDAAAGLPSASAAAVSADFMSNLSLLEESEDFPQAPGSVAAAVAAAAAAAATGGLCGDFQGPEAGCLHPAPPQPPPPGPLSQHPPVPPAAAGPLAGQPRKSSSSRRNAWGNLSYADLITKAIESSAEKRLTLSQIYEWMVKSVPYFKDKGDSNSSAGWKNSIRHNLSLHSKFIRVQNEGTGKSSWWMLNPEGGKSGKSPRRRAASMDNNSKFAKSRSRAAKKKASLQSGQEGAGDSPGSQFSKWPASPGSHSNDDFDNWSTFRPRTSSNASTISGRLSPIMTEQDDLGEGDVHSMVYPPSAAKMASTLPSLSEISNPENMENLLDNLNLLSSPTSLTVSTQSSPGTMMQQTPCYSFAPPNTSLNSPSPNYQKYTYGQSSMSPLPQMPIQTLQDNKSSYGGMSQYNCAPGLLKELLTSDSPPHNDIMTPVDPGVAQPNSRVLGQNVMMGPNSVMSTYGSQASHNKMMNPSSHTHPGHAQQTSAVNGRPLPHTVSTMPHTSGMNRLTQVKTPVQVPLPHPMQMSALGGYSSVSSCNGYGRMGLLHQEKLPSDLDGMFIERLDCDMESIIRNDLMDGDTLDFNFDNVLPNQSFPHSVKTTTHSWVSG
Chain of Constitutively active FOXO3A constitutively active (AKT phosphorylation sites, residues not stated) (Homo sapiens) (O43524 whole entry): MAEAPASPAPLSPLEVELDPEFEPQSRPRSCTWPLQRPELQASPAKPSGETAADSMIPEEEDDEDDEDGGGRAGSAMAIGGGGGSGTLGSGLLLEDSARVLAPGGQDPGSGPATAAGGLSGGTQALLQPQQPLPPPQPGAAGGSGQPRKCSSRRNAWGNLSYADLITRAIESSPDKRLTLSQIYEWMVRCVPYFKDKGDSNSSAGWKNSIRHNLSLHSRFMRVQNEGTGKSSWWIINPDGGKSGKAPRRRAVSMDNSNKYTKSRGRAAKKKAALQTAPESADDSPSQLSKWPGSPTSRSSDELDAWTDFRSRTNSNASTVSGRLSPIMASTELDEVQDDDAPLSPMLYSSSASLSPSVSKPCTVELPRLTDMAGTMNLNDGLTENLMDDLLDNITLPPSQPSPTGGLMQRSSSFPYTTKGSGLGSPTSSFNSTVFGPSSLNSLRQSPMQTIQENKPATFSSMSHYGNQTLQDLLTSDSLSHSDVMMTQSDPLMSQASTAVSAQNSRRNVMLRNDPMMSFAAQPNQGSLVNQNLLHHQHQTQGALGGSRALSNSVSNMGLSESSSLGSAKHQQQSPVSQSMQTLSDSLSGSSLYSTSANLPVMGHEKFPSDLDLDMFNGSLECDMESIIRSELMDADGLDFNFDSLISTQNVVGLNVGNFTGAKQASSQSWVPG
Chain of Wild-type FOXO3A (Homo sapiens) (O43524 whole entry): as above

IGF-1: insulin-like growth factor-1, used at 10 ng/ml (Sigma)
effect on atrogin-1 mRNA in either model of atrophy ([1]; IGF-1 10 ng/ml added to starved (6 hrs) or dexamethasone-treated (24 hrs) myotubes): suppressed atrogin-1 mRNA to the level in untreated myotubes | effect of IGF-1 on atrogin-1 mRNA ([1]; cells expressing the constitutively active Foxo3): did not reduce | decrease in atrogin-1 mRNA content by IGF-1 ([1]; cells expressing the wild type Foxo3, IGF-1 10 ng/ml): 3 fold | effect on phosphorylated Foxo1, 3 and 4 in either model of atrophy ([2]; IGF-1 10 ng/ml, starved or dexamethasone-treated myotubes): increased the levels of phosphorylated Foxo1, 3, and 4 | S6K phosphorylation after IGF-1 addition ([3]; dexamethasone-treated cultures): restored S6K phosphorylation | S6K phosphorylation after IGF-1 addition ([3]; starved cells): remained largely dephosphorylated

3.5 kb atrogin-1 promoter
activity [4]: > 20 fold | activity [5]: 3 fold

ATFoxo 1: double stranded oligonucleotide with atrogin-1 promoter forkhead site ATAAATA (SEQ ID NO:13/14) (chain 1 GGGATAAATACTGTGCTCGGGCAG; chain 2 CTGCCCGAGCACAGTATTTATCCC; listed as DNA, chemistry not fully specified)
competition of FoxoGST-IGFBP1 complex formation by unlabeled oligonucleotide [6]: markedly reduced | binding of FoxoGST to 32P-labeled oligonucleotide [6]: bound | competition of FoxoGST-AT Foxo 1 complex formation [6]: able to block

[Cl-].[Li+] [LiCl, reference compound]
effect on atrogin-1 induction by dexamethasone ([1]; myotubes, 1 μM dexamethasone 24 hrs): unable to decrease

oligonucleotide containing an SP1 binding site: unrelated oligonucleotide containing an SP1 binding site (SEQ ID NO:11/12) (chain 1 ATTCGATCGGGGCGGGGCGAG; chain 2 CTCGCCCCGCCCCGATCGTAA; listed as DNA, chemistry not fully specified) [reference compound]
competition of FoxoGST-IGFBP1 complex formation by unlabeled oligonucleotide [6]: did not prevent complex formation

OO [hydrogen peroxide]
effect on atrogin-1 expression in myotubes [7]: expression of atrogin-1 rose

C[C@@H]1C[C@H]2[C@@H]3CCC4=CC(=O)C=C[C@]4(C)[C@@]3(F)[C@@H](O)C[C@]2(C)[C@@]1(O)C(=O)CO [dexamethasone, reference compound]
increase in atrogin-1 mRNA content ([1]; cultured myotubes treated with dexamethasone (1 μM) for 24 hrs): 2-3 fold | reduction in mean myotube diameter [8]: 40% | fall in ratio of phospho-AKT to total AKT [9]: 30% | decrease in levels of phosphorylated Foxo1 and 3 ([2]; glucocorticoid treatment 24 hrs): at least 30% | decrease in level of phosphorylated S6K ([3]; dexamethasone treatment 24 hrs): 10%

ATFoxo 1mut: mutated version of the site, ATCACTA (SEQ ID NO:15/16) (chain 1 GGGATCACTACTGTGCTCGGGCAG; chain 2 CTGCCCGAGCACAGTAGTGATCCC; listed as DNA, chemistry not fully specified)
competition of FoxoGST-IGFBP1 complex formation by unlabeled oligonucleotide [6]: did not prevent complex formation | binding of FoxoGST to 32P-labeled oligonucleotide [6]: did not bind | competition of FoxoGST-AT Foxo 1 complex formation [6]: not

B1: IGFBP1 oligonucleotide: control oligonucleotide containing a known forkhead site from the IGFBP1 promoter (SEQ ID NO:9/10) (nucleic acid)
chain 1: CTAGCAAGCAAAACAAACTTATTTTGAACACGGGG
chain 2: CCCCGTGTTCAAAATAAGTTTGTTTTGCTTGCTAG
modifications: listed as DNA, chemistry not fully specified
competition of FoxoGST-IGFBP1 complex formation by unlabeled oligonucleotide [6]: prevented formation | binding of FoxoGST to 32P-labeled oligonucleotide [6]: bound

Reference: patent US20060069049A1, “Methods and reagents related to foxo” (President and Fellows of Harvard College, priority 2003, published 2006)
